Experimental data from ChEMBL document CHEMBL4321865, “Discovery of Novel Inhibitors of LpxC Displaying Potent in Vitro Activity against Gram-Negative Bacteria” (J Med Chem, 2020).
Values after ≈ are worked out from the molar mass of the structure shown.

Legend:
[1] = test system: T1, UDP-3-O-acyl-N-acetylglucosamine deacetylase (Pseudomonas aeruginosa (strain ATCC 15692 / PAO1 / 1C / PRS 101 / LMG12228)), P47205 [C40S]
T1 sequence (whole entry): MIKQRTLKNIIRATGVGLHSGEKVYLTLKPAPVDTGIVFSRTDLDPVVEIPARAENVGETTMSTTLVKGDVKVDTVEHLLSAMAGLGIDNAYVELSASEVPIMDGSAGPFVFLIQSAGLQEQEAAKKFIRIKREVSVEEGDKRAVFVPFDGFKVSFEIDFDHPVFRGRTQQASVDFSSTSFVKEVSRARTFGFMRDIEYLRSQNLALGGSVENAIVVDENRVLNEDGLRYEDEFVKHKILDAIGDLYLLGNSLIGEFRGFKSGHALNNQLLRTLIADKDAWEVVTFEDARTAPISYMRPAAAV

[2] = test system: T2, UDP-3-O-acyl-N-acetylglucosamine deacetylase (Escherichia coli K-12), P0A725 [C125S]
T2 sequence (whole entry): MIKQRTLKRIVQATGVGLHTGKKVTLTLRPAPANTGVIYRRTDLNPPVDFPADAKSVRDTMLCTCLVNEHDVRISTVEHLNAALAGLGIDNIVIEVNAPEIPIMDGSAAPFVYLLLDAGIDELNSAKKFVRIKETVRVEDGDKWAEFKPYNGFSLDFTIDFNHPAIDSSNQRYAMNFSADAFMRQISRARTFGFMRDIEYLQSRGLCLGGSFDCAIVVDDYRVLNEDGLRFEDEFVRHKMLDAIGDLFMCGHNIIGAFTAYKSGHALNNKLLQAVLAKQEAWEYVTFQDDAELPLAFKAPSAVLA

[3] = test system: Pseudomonas aeruginosa; test: microbe, parasite or virus in culture; conditions: ATCC 27853
Description: Antimicrobial activity against Pseudomonas aeruginosa ATCC 27853 by broth microdilution method

[4] = test system: Escherichia coli; test: microbe, parasite or virus in culture; conditions: ATCC 25922
Description: Antibacterial activity against wild-type Escherichia coli ATCC 25922 by broth microdilution method

[5] = test system: Pseudomonas aeruginosa; test: microbe, parasite or virus in culture; conditions: PAO1
Description: Antimicrobial activity against wild-type Pseudomonas aeruginosa PAO1 by broth microdilution method

[6] = physchem; conditions: DMSO, pH 7
Description: Solubility of the compound in DMSO at pH 7 incubated for 24 hrs by LC-UV method

[7] = physchem; conditions: DMSO, pH 4
Description: Solubility of the compound in DMSO at pH 4 incubated for 24 hrs by LC-UV method

[8] = test system: Klebsiella pneumoniae; test: microbe, parasite or virus in culture; conditions: T 6474
Description: Antibacterial activity against multi-drug resistant Klebsiella pneumoniae T 6474 by broth microdilution method

[9] = physchem; conditions: DMSO, pH 9
Description: Solubility of the compound in DMSO at pH 9 incubated for 24 hrs by LC-UV method

[10] = physchem; conditions: n-octanol/phosphate buffered saline, pH 7.4
Description: n-Octanol/phosphate buffered saline partition coefficient, log D of the compound at pH 7.4 by LC-UV method

Compound	ΔTm [1] [°C]	ΔTm [2] [°C]	MIC [3] [µg/mL]	MIC [4] [µg/mL]	MIC [5] [µg/mL]	solubility at 24 h [6] [µg/mL]	solubility at 24 h [7] [µg/mL]	MIC [8] [µg/mL]	solubility at 24 h [9] [µg/mL]	logD [10]
CC(C)(O)c1ccc(C#Cc2cc3n(c2)C(=O)N(CC[C@](C)(C(=O)NO)S(C)(=O)=O)C3)cc1	13.7	11.8	0.5 (≈ 1.06 µM)	0.12 (≈ 0.253 µM)	1 (≈ 2.11 µM)	110 (≈ 232 µM)	70 (≈ 148 µM)	0.25 (≈ 0.528 µM)	556 (≈ 1170 µM)	1.9
C[C@@](CCN1Cc2cc(C#CC#C[C@H]3C[C@@H]3CO)sc2C1=O)(C(=O)NO)S(C)(=O)=O	15	12.2	0.5 (≈ 1.11 µM)	0.15 (≈ 0.333 µM)	0.5 (≈ 1.11 µM)	603 (≈ 1340 µM)	522 (≈ 1160 µM)	0.25 (≈ 0.555 µM)	> 760	1.3
C[C@@](CCN1Cc2cc(C#Cc3ccc(C4(O)COC4)cc3)cn2C1=O)(C(=O)NO)S(C)(=O)=O	13	10.8	0.5 (≈ 1.03 µM)	0.12 (≈ 0.246 µM)	1 (≈ 2.05 µM)	> 820	195 (≈ 400 µM)	0.5 (≈ 1.03 µM)	> 820	1.2
CC(C)(O)c1ccc(C#Cc2cc3c(s2)C(=O)N(CC[C@](C)(C(=O)NO)S(C)(=O)=O)C3)cc1	15.5	13	0.5 (≈ 1.02 µM)	0.12 (≈ 0.245 µM)	1 (≈ 2.04 µM)	83 (≈ 169 µM)	69 (≈ 141 µM)	0.25 (≈ 0.51 µM)	613 (≈ 1250 µM)	2.1
C[C@@](CCN1Cc2cc(C#CC#C[C@@H]3C[C@H]3CO)cn2C1=O)(C(=O)NO)S(C)(=O)=O	13.6	10.8	0.5 (≈ 1.15 µM)	0.12 (≈ 0.277 µM)	0.5 (≈ 1.15 µM)	–	600 (≈ 1380 µM)	0.25 (≈ 0.577 µM)	–	–
C[C@@](CCN1Cc2cc(C#Cc3ccc(CN4CCOCC4)cc3)ccc2C1=O)(C(=O)NO)S(C)(=O)=O	13.8	11	2 (≈ 3.8 µM)	0.12 (≈ 0.228 µM)	2 (≈ 3.8 µM)	148 (≈ 282 µM)	> 890	0.5 (≈ 0.951 µM)	> 890	1.8
C[C@@](CCN1Cc2cc(C#Cc3ccc(CN4CCOCC4)cc3)sc2C1=O)(C(=O)NO)S(C)(=O)=O	15.5	13	1 (≈ 1.88 µM)	≤ 0.06	1 (≈ 1.88 µM)	155 (≈ 292 µM)	> 900	0.12 (≈ 0.226 µM)	571 (≈ 1070 µM)	1.8
C[C@@](CCN1Cc2cc(C#CC#C[C@H](O)CO)cn2C1=O)(C(=O)NO)S(C)(=O)=O	10.3	7.3	4 (≈ 9.45 µM)	8 (≈ 18.9 µM)	8 (≈ 18.9 µM)	–	–	8 (≈ 18.9 µM)	–	–
C[C@@](CCN1Cc2cc(C#Cc3ccc(CN4CCOCC4)cc3)cn2C1=O)(C(=O)NO)S(C)(=O)=O	13.6 to 13.9	11.9	1 (≈ 1.94 µM)	–	1 (≈ 1.94 µM)	68 (≈ 132 µM)	802 (≈ 1560 µM)	0.25 (≈ 0.486 µM)	621 (≈ 1210 µM)	1.6
C[C@@](CCN1Cc2cc(C#Cc3ccc(COC(=O)N4CCC(O)CC4)cc3)cn2C1=O)(C(=O)NO)S(C)(=O)=O	14.2	11.8	2 (≈ 3.49 µM)	0.25 (≈ 0.437 µM)	2 (≈ 3.49 µM)	15 (≈ 26.2 µM)	< 1	0.5 (≈ 0.873 µM)	251 (≈ 438 µM)	1.7
C[C@@](CCN1Cc2cc(C#Cc3ccc([C@@H]4C[C@H]4CO)cc3)cn2C1=O)(C(=O)NO)S(C)(=O)=O	13.4	12.1	0.5 (≈ 1.03 µM)	≤ 0.06	1 (≈ 2.06 µM)	112 (≈ 231 µM)	73 (≈ 150 µM)	≤ 0.06	568 (≈ 1170 µM)	2
C[C@@](CCN1Cc2cc(C#CC#CC3(O)COC3)ccc2C1=O)(C(=O)NO)S(C)(=O)=O	11.6	7	8 (≈ 17.9 µM)	16 (≈ 35.8 µM)	4 (≈ 8.96 µM)	–	–	8 (≈ 17.9 µM)	–	–
CC(C)(O)C#CC#Cc1ccc2c(c1)CN(CC[C@](C)(C(=O)NO)S(C)(=O)=O)C2=O	12.6	8.5	2 (≈ 4.62 µM)	1 (≈ 2.31 µM)	2 (≈ 4.62 µM)	97 (≈ 224 µM)	71 (≈ 164 µM)	2 (≈ 4.62 µM)	564 (≈ 1300 µM)	1.2
C[C@@](CCN1Cc2cc(C#Cc3ccc([C@H](O)CO)cc3)sc2C1=O)(C(=O)NO)S(C)(=O)=O	14.3	12.1	1 (≈ 2.03 µM)	0.5 (≈ 1.02 µM)	2 (≈ 4.06 µM)	300 (≈ 609 µM)	230 (≈ 467 µM)	1 (≈ 2.03 µM)	814 (≈ 1650 µM)	0.8
CC(C)(O)c1ccc(C#Cc2ccc3c(c2)CN(CC[C@](C)(C(=O)NO)S(C)(=O)=O)C3=O)cc1	12.8	9.5	4 (≈ 8.25 µM)	0.25 (≈ 0.516 µM)	8 (≈ 16.5 µM)	7 (≈ 14.4 µM)	4 (≈ 8.25 µM)	0.5 (≈ 1.03 µM)	136 (≈ 281 µM)	2.3
C[C@@](CCN1Cc2cc(C#CC#CC3(O)COC3)sc2C1=O)(C(=O)NO)S(C)(=O)=O	12.2	7.4	4 (≈ 8.84 µM)	2 (≈ 4.42 µM)	4 (≈ 8.84 µM)	> 760	> 760	4 (≈ 8.84 µM)	> 760	0.5
CC(C)(O)C#CC#Cc1cc2c(s1)C(=O)N(CC[C@](C)(C(=O)NO)S(C)(=O)=O)C2	13.6	9.9	1 (≈ 2.28 µM)	0.5 (≈ 1.14 µM)	2 (≈ 4.56 µM)	> 740	> 740	2 (≈ 4.56 µM)	> 740	1.2
C[C@@](CCN1Cc2cc(C#Cc3ccc(C4(CO)CC4)cc3)cn2C1=O)(C(=O)NO)S(C)(=O)=O	13.6	11.8	0.5 (≈ 1.03 µM)	0.12 (≈ 0.247 µM)	0.5 (≈ 1.03 µM)	7 (≈ 14.4 µM)	5 (≈ 10.3 µM)	0.25 (≈ 0.515 µM)	56 (≈ 115 µM)	2
C[C@@](CCN1Cc2cc(C#Cc3ccc([C@H]4C[C@@H]4CO)cc3)cn2C1=O)(C(=O)NO)S(C)(=O)=O	13.4	12.1	0.5 (≈ 1.03 µM)	≤ 0.06	1 (≈ 2.06 µM)	24 (≈ 49.4 µM)	11 (≈ 22.7 µM)	≤ 0.06	170 (≈ 350 µM)	1.4
C[C@@](CCN1Cc2cc(C#CC#CC3(O)COC3)cn2C1=O)(C(=O)NO)S(C)(=O)=O	11.3	8.8	2 (≈ 4.59 µM)	1 (≈ 2.3 µM)	4 (≈ 9.19 µM)	> 740	> 740	2 (≈ 4.59 µM)	> 740	0.3
C[C@@](CCN1Cc2cc(C#CC#C[C@@H]3C[C@H]3CO)sc2C1=O)(C(=O)NO)S(C)(=O)=O	15	11.2	0.5 (≈ 1.11 µM)	0.12 (≈ 0.266 µM)	0.5 (≈ 1.11 µM)	377 (≈ 837 µM)	464 (≈ 1030 µM)	0.25 (≈ 0.555 µM)	380 (≈ 843 µM)	1.3
C[C@@](CCN1Cc2cc(C#CC#CCNS(C)(=O)=O)cn2C1=O)(C(=O)NO)S(C)(=O)=O	10.8	8	4 (≈ 8.5 µM)	2 (≈ 4.25 µM)	1 (≈ 2.13 µM)	–	–	4 (≈ 8.5 µM)	–	–
C[C@@](CCN1Cc2cc(C#Cc3ccc(C4(O)COC4)cc3)sc2C1=O)(C(=O)NO)S(C)(=O)=O	14.3	11.4	0.5 (≈ 0.991 µM)	0.12 (≈ 0.238 µM)	2 (≈ 3.96 µM)	> 850	114 (≈ 226 µM)	0.5 (≈ 0.991 µM)	> 850	1.5
CC(C)(O)C#CC#Cc1cc2n(c1)C(=O)N(CC[C@](C)(C(=O)NO)S(C)(=O)=O)C2	12.3	9.9	1 (≈ 2.37 µM)	0.5 (≈ 1.19 µM)	2 (≈ 4.75 µM)	> 710	398 (≈ 944 µM)	1 (≈ 2.37 µM)	> 710	0.9
C[C@@](CCN1Cc2cc(C#CC#CC3(CO)CC3)sc2C1=O)(C(=O)NO)S(C)(=O)=O	14.2	10.9	1 (≈ 2.22 µM)	1 (≈ 2.22 µM)	1 (≈ 2.22 µM)	> 760	443 (≈ 983 µM)	1 (≈ 2.22 µM)	> 760	1.2
